Results published in patent publication US12128099B2 (priority 2018, dated 2024).
Where “and” joins values, the source holds several entries; their conditions need not be identical. Identical values can stand only once. Like-named read-outs stand apart in the source and are kept apart here.

Experiments:
[1] = test system: THP-1 SAMD9 KD cells; format: cell-based, human; settings: FIGS. 15A-15D, 16C
[2] = test system: OC patient ascites-associated CD14+ monocytes
[3] = test system: OvCa-2a; experiment: cells; format: cell-based, human; settings: read-out: calculated IC50
[4] = test system: primary OC cells (OvCa-2a and OvCa-26); format: cell-based, human
[5] = test system: ID8 disseminated tumor; set-up: species or system mice; settings: mouse, in vivo
[6] = test system: SKOV3; experiment: cells; format: cell-based, human
[7] = test system: OvCa-26; experiment: cells; format: cell-based, human; settings: read-out: calculated IC50
[8] = test system: murine OC ID8 cells; format: cell-based
[9] = test system: MYXV

Nc1nc2c(ncn2[C@@H]2O[C@@H]3COP(=O)(O)O[C@H]4[C@@H](O)[C@H](n5cnc6c(N)ncnc65)O[C@@H]4COP(=O)(O)O[C@@H]2[C@@H]3O)c(=O)[nH]1 [2′3′-cGAMP]
IFNβ / ISG mRNA in SAMD9 KD cells versus control cells [1]: comparably to control cells

O=[N+]([O-])c1ccc2c(c1)S(=O)(=O)C=C2 [Stattic]
IL-8 level [2]: unchanged levels of IL-8 | cytokine secretion (IL-10, IL-6) [2]: suppressive effect in cytokine secretion | toxicity [2]: did not cause noticeable toxicity

N.N.[Cl][Pt][Cl] [cisplatin]
IC50 [3]: 3.6 µM | growth inhibition, drug treatment alone [4]: did not observe significant growth inhibition | Median survival [5]: 113 days and 127 days | median survival time [5]: 90 days | survival [5]: 40% | IC50 ([6]; read-out: IC50): 8.4 µM | IC50 [7]: 11.4 µM | IC50 [8]: 2 µM | MYXV DNA replication [9]: inhibits DNA replication of MYXV

Nc1ccn([C@@H]2O[C@H](CO)[C@@H](O)C2(F)F)c(=O)n1 [gemcitabine]
IC50 ([3]; Homo sapiens): 960 µM | growth inhibition, drug treatment alone [4]: did not observe significant growth inhibition | median survival time [5]: 78 days | therapeutic benefit, single-agent treatment given late [5]: did not lead to significant therapeutic benefit | IC50 ([6]; Homo sapiens, SK-OV-3): 9.32 µM | IC50 ([7]; Homo sapiens): 14.6 µM
